Test results from article PMC11078746 (Nature, 2024).
Values joined by “and” are separate entries in the source; they are usually repeats but may differ in a detail not shown here. Equal values may be shown once.

How the values were obtained:
Experiment in all cases: MSI xenograft model efficacy
Format in all cases: in vivo, mouse
5441-HX xenograft = settings: colorectal carcinoma, 60 or 120 mg/kg
Protocol: (§1) All animal studies were conducted in accordance with ethics and procedures covered by permit BS-2275 and BS-1975 issued by the Kantonales Veterinäramt Basel-Stadt and in strict adherence to guidelines of the Eidgenössisches Tierschutzgesetz and the Eidgenössische Tierschutzverordnung, Switzerland. All animal studies were approved by the internal ethics committee. All animals had access to food and water ad libitum and were identified with transponders. They were housed in a specific-pathogen-free facility in IVC racks under a 12 h–12 h light–dark cycle. To establish cell-line-derived xenograft models, 6–7-week-old female athymic nude (Crl:NU(NCr)-Foxn1^nu) or SCID-BEIGE (CB17.Cg-PrkdcscidLystbg-J/Crl) mice from Charles River were engrafted subcutaneously with 5 million tumour cells in HBSS (H6648, Sigma-Aldrich). For SNU-407, Lovo, IM95, RL95.2, Ishikawa and IGROV-1, the cells were concentrated in 50% Matrigel (354234, Corning). Patient-derived xenografts were induced and expanded by transplantation as previously described. […] For the efficacy experiment, mice were randomized into groups (n = 5–6) for a mean tumour size of 100–150 mm^3. […] Blood samples were collected on day 7 and 91. […] Tumour responses are reported with the measures of tumour volumes from the treatment start. […] Animals were randomized (n = 3) and tumour samples were collected at 0, 1, 4, 8 and 24 h on the first day and then collected 4 h after the last treatment on day 3, 8, 10, 14 (including a 24 h timepoint), 17 and 21. Tumours were excised, weighed, either frozen in liquid nitrogen and cryogenic dry pulverized with the CryoPrep system (model CP-02, Covaris) or processed to FFPE after fixation. […] On day 12, blood samples were collected for PK analysis. On the last day (3 h after the last treatment), tumours were excised, weighed, frozen in liquid nitrogen and cryogenic dry pulverized for PD analysis.

LIM2405 xenograft = settings: LIM2405, colorectal carcinoma; 60 or 120 mg/kg
Protocol: as §1

Ishikawa xenograft = settings: Endometrial carcinoma, 60 or 120 mg/kg
Protocol: as §1

RL95.2 xenograft = settings: RL95.2, Endometrial carcinoma; 60 or 120 mg/kg
Protocol: as §1

[1] = tested on: HCT116 TP53 null xenograft; settings: for Mean TVol / Tumour volume (TVol): HCT116 p53 null, 60 mpk; for Tumour volume (TVol): single mouse, 60 mg/kg
Protocol: as §1

2861-HX xenograft = settings: colorectal carcinoma, 60 or 120 mg/kg
Protocol: as §1

SNU407 xenograft = settings: SNU407, colorectal carcinoma; 60 or 120 mg/kg
Protocol: as §1

HCT116 TP53 WT xenograft = settings: for Mean TVol / Tumour volume (TVol): HCT116 WT, 60 mpk; for Tumour volume (TVol): single mouse, 60 mg/kg
Protocol: as §1

RKO xenograft = settings: colorectal carcinoma, 60 or 120 mg/kg
Protocol: as §1

1119-HX xenograft = settings: colorectal carcinoma, 60 or 120 mg/kg
Protocol: as §1

JHUEM2 xenograft = settings: JHUEM2, Endometrial carcinoma; 60 or 120 mg/kg
Protocol: as §1

IM95 xenograft = settings: IM95, Gastric carcinoma; 60 or 120 mg/kg
Protocol: as §1

5495-HX xenograft = settings: colorectal carcinoma, 60 or 120 mg/kg
Protocol: as §1

IGROV1 xenograft = settings: IGROV1, Ovarian carcinoma; 60 or 120 mg/kg
Protocol: as §1

HEC6 xenograft = settings: HEC6, Endometrial carcinoma; 60 or 120 mg/kg
Protocol: as §1

`CCc1c(N2CCN(C(=O)c3ncnc(C)c3O)CC2)c(=O)n2nc(C3=CCOCC3)nc2n1CC(=O)Nc1ccc(C(F)(F)F)cc1Cl` [HRO761] showed a Best average response (5441-HX xenograft) of 7, a Best average response (LIM2405 xenograft) of 44 and a Best average response (Ishikawa xenograft) of -70. The Best average response (RL95.2 xenograft) was -66, the Best average response ([1]; HCT116 P53 null, colorectal carcinoma, 60 or 120 mg/kg) was -100 and the “Mean TVol” value ([1]; day 0) was 151.89 mm3. The “Tumour volume (TVol)” value ([1]; day 0) was 114.28 mm3 and 172.75 mm3 and 98.96 mm3 and 162.60 mm3 and 112.69 mm3 and 250.04 mm3, the “Mean TVol” value ([1]; day 3) was 243.48 mm3 and the “Tumour volume (TVol)” value ([1]; day 3) was 162.58 mm3 and 332.14 mm3 and 148.24 mm3 and 251.18 mm3 and 212.27 mm3 and 354.49 mm3. The “Mean TVol” value ([1]; day 7) was 201.27 mm3, the “Tumour volume (TVol)” value ([1]; day 7) was 115.63 mm3 and 278.64 mm3 and 112.69 mm3 and 190.13 mm3 and the “Mean TVol” value ([1]; day 10) was 167.32 mm3. For the same compound, the “Mean TVol” value ([1]; day 14) was 78.55 mm3, the “Tumour volume (TVol)” value ([1]; day 14) was 57.94 mm3 and 66.94 mm3 and 44.25 mm3 and 61.17 mm3 and 71.26 mm3 and 169.76 mm3 and the “Mean TVol” value ([1]; day 17) was 56.92 mm3. For the same compound, the “Tumour volume (TVol)” value ([1]; day 17) was 38.70 mm3 and 22.79 mm3 and 27.88 mm3 and 45.55 mm3 and 49.32 mm3 and 157.29 mm3, the “Mean TVol” value ([1]; day 21) was 29.14 mm3 and the “Tumour volume (TVol)” value ([1]; day 21) was 20.42 mm3 and 11.20 mm3 and 10.29 mm3 and 21.47 mm3 and 18.24 mm3 and 93.23 mm3. The “Mean TVol” value ([1]; day 24) was 15.47 mm3, the “Tumour volume (TVol)” value ([1]; day 24) was 13.85 mm3 and 5.24 mm3 and 5.28 mm3 and 4.25 mm3 and 8.53 mm3 and 55.64 mm3 and the “Mean TVol” value ([1]; day 29) was 6.87 mm3. For the same compound, the “Tumour volume (TVol)” value ([1]; day 29) was 2.43 mm3 and 4.29 mm3 and 1.21 mm3 and 1.27 mm3 and 2.76 mm3 and 29.26 mm3, the “Mean TVol” value ([1]; day 31) was 4.02 mm3 and the “Tumour volume (TVol)” value ([1]; day 31) was 2.71 mm3 and 2.05 mm3 and 0.39 mm3 and 0.99 mm3 and 0.92 mm3 and 17.07 mm3. For the same compound, the “Mean TVol” value ([1]; day 35) was 3.16 mm3, the “Tumour volume (TVol)” value ([1]; day 35) was 1.81 mm3 and 0.00 mm3 (2×) and 0.17 mm3 and 0.75 mm3 and 16.24 mm3 and the “Mean TVol” value ([1]; day 38) was 4.17 mm3. For the same compound, the “Tumour volume (TVol)” value ([1]; day 38) was 0.58 mm3 and 0.00 mm3 (3×) and 1.01 mm3 and 23.40 mm3, the “Mean TVol” value ([1]; day 42) was 4.73 mm3 and the “Tumour volume (TVol)” value ([1]; day 42) was 0.90 mm3 and 0.00 mm3 (4×) and 27.46 mm3. The “Mean TVol” value ([1]; day 45) was 6.85 mm3, the “Tumour volume (TVol)” value ([1]; day 45) was 1.68 mm3 and 0.00 mm3 (4×) and 39.40 mm3 and the “Mean TVol” value ([1]; day 49) was 7.67 mm3. For the same compound, the “Tumour volume (TVol)” value ([1]; day 49) was 0.00 mm3 (5×) and 46.01 mm3, the “Mean TVol” value ([1]; day 53) was 9.89 mm3 and the “Tumour volume (TVol)” value ([1]; day 53) was 0.00 mm3 (5×) and 59.36 mm3. The “Mean TVol” value ([1]; day 56) was 14.65 mm3, the “Tumour volume (TVol)” value ([1]; day 56) was 0.00 mm3 (5×) and 87.90 mm3 and the “Mean TVol” value ([1]; day 60) was 17.60 mm3. For the same compound, the “Tumour volume (TVol)” value ([1]; day 60) was 0.63 mm3 and 0.00 mm3 (4×) and 104.97 mm3, the Best average response (2861-HX xenograft) was -70 and the Best average response (SNU407 xenograft) was -40. The Best average response (HCT116 TP53 WT xenograft; HCT116 P53 WT, colorectal carcinoma, 60 or 120 mg/kg) was -60, the “Mean TVol” value (HCT116 TP53 WT xenograft; day 0) was 219.01 mm3 and the “Tumour volume (TVol)” value (HCT116 TP53 WT xenograft; day 0 post 1st dose) was 93.52 mm3 and 234.39 mm3 and 157.76 mm3 and 320.89 mm3 and 161.54 mm3 and 345.97 mm3. The “Mean TVol” value (HCT116 TP53 WT xenograft; day 3) was 281.33 mm3, the “Tumour volume (TVol)” value (HCT116 TP53 WT xenograft; day 3) was 104.72 mm3 and 379.81 mm3 and 232.95 mm3 and 368.27 mm3 and 173.78 mm3 and 428.47 mm3 and the “Mean TVol” value (HCT116 TP53 WT xenograft; day 7) was 242.31 mm3. For the same compound, the “Tumour volume (TVol)” value (HCT116 TP53 WT xenograft; day 7) was 103.44 mm3 and 369.23 mm3 and 158.31 mm3 and 312.72 mm3, the “Mean TVol” value (HCT116 TP53 WT xenograft; day 10) was 237.77 mm3 and the “Mean TVol” value (HCT116 TP53 WT xenograft; day 14) was 208.41 mm3. The “Tumour volume (TVol)” value (HCT116 TP53 WT xenograft; day 14) was 70.08 mm3 and 324.15 mm3 and 133.86 mm3 and 295.48 mm3 and 98.69 mm3 and 328.18 mm3, the “Mean TVol” value (HCT116 TP53 WT xenograft; day 17) was 206.85 mm3 and the “Tumour volume (TVol)” value (HCT116 TP53 WT xenograft; day 17) was 71.54 mm3 and 333.55 mm3 and 123.78 mm3 and 277.24 mm3 and 67.49 mm3 and 367.52 mm3. The “Mean TVol” value (HCT116 TP53 WT xenograft; day 21) was 182.16 mm3, the “Tumour volume (TVol)” value (HCT116 TP53 WT xenograft; day 21) was 68.28 mm3 and 318.05 mm3 and 133.60 mm3 and 239.83 mm3 and 55.74 mm3 and 277.43 mm3 and the “Mean TVol” value (HCT116 TP53 WT xenograft; day 24) was 152.12 mm3. For the same compound, the “Tumour volume (TVol)” value (HCT116 TP53 WT xenograft; day 24) was 51.97 mm3 and 322.25 mm3 and 104.45 mm3 and 220.64 mm3 and 35.09 mm3 and 178.30 mm3, the “Mean TVol” value (HCT116 TP53 WT xenograft; day 29) was 108.49 mm3 and the “Tumour volume (TVol)” value (HCT116 TP53 WT xenograft; day 29) was 53.97 mm3 and 224.74 mm3 and 66.70 mm3 and 182.17 mm3 and 28.07 mm3 and 95.29 mm3. For the same compound, the “Mean TVol” value (HCT116 TP53 WT xenograft; day 31) was 115.60 mm3, the “Tumour volume (TVol)” value (HCT116 TP53 WT xenograft; day 31) was 67.20 mm3 and 248.87 mm3 and 79.67 mm3 and 165.88 mm3 and 35.96 mm3 and 96.04 mm3 and the “Mean TVol” value (HCT116 TP53 WT xenograft; day 35) was 82.07 mm3. The “Tumour volume (TVol)” value (HCT116 TP53 WT xenograft; day 35) was 74.11 mm3 and 171.12 mm3 and 62.35 mm3 and 120.74 mm3 and 20.08 mm3 and 43.99 mm3, the “Mean TVol” value (HCT116 TP53 WT xenograft; day 38) was 85.39 mm3 and the “Tumour volume (TVol)” value (HCT116 TP53 WT xenograft; day 38) was 95.75 mm3 and 187.18 mm3 and 54.75 mm3 and 135.21 mm3 and 15.88 mm3 and 23.55 mm3. For the same compound, the “Mean TVol” value (HCT116 TP53 WT xenograft; day 42) was 74.87 mm3, the “Tumour volume (TVol)” value (HCT116 TP53 WT xenograft; day 42) was 111.35 mm3 and 127.20 mm3 and 44.64 mm3 and 140.38 mm3 and 12.27 mm3 and 13.40 mm3 and the “Mean TVol” value (HCT116 TP53 WT xenograft; day 45) was 100.30 mm3. For the same compound, the “Tumour volume (TVol)” value (HCT116 TP53 WT xenograft; day 45) was 197.14 mm3 and 123.97 mm3 and 48.50 mm3 and 218.58 mm3 and 10.09 mm3 and 3.53 mm3, the “Mean TVol” value (HCT116 TP53 WT xenograft; day 49) was 121.82 mm3 and the “Tumour volume (TVol)” value (HCT116 TP53 WT xenograft; day 49) was 316.70 mm3 and 100.63 mm3 and 72.22 mm3 and 229.46 mm3 and 10.59 mm3 and 1.31 mm3. For the same compound, the “Mean TVol” value (HCT116 TP53 WT xenograft; day 53) was 194.25 mm3, the “Tumour volume (TVol)” value (HCT116 TP53 WT xenograft; day 53) was 483.74 mm3 and 180.66 mm3 and 93.29 mm3 and 393.80 mm3 and 13.76 mm3 and 0.25 mm3 and the “Mean TVol” value (HCT116 TP53 WT xenograft; day 56) was 269.54 mm3. The “Tumour volume (TVol)” value (HCT116 TP53 WT xenograft; day 56) was 671.24 mm3 and 160.85 mm3 and 148.76 mm3 and 618.00 mm3 and 18.36 mm3 and 0.00 mm3, the “Mean TVol” value (HCT116 TP53 WT xenograft; day 60) was 408.84 mm3 and the “Tumour volume (TVol)” value (HCT116 TP53 WT xenograft; day 60) was 1070.44 mm3 and 236.23 mm3 and 249.04 mm3 and 872.91 mm3 and 24.42 mm3 and 0.00 mm3. The Best average response (RKO xenograft) was 300, the Best average response (1119-HX xenograft) was -14 and the Best average response (JHUEM2 xenograft) was 400. The Best average response (IM95 xenograft) was -90, the Best average response (5495-HX xenograft) was -50 and the Best average response (IGROV1 xenograft) was -38. For the same compound, the Best average response (HEC6 xenograft) was -75.
